According to ChEMBL document CHEMBL1201862, “PubChem BioAssay data set” (2004):
Activity calls are given as the source filed them.

Columns and labels:
[1] = inhibitors of intracellular T. cruzi replication, confirmation, NIH3T3 host cells, beta-gal luminescence (AID 2044); assay type: functional, cell-based;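 note: intracellular parasites grown in NIH/3T3 mouse fibroblasts as host cells; luminescent beta-galactosidase reporter signal from transgenic T. cruzi replicating inside host cells; inhibitors lower the luminescence signal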
[2] = cytotoxicity toward NIH3T3 fibroblasts, dose response, counter-screen, cell-based, ATP luminescence, mouse fibroblasts (AID 2010); assay type: functional;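 note: cells exposed to compound for about 90 hours before reading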
Exodeoxyribonuclease V = molecular target: T1, Exodeoxyribonuclease V (Escherichia coli (strain K12), UniProt P04993+P07648+P08394); experiment: E. coli RecBCD inhibitors, dose response, counter-screen for AddAB inhibitor project, absorbance, V66 E. coli, mutant T4 phage (AID 492957); assay type: functional, cell-based, Escherichia coli str. K-12 substr. MG1655
T1 sequence (P04993 whole entry): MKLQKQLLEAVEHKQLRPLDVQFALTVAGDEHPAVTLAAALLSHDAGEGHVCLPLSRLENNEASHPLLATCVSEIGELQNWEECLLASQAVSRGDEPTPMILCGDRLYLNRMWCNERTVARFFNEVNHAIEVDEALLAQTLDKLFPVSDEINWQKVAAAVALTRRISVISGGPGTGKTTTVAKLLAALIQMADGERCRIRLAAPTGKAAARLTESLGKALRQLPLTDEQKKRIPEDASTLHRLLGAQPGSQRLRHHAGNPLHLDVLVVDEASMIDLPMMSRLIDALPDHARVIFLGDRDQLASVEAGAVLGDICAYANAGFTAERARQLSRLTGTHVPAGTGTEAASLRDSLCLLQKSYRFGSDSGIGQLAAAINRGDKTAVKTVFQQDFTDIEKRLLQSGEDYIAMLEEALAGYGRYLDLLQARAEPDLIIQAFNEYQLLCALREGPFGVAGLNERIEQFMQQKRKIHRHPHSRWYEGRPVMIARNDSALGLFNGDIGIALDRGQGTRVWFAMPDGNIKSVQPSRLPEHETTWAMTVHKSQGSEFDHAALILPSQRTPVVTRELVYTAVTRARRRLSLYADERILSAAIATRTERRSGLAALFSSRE
T1 sequence (P07648 whole entry): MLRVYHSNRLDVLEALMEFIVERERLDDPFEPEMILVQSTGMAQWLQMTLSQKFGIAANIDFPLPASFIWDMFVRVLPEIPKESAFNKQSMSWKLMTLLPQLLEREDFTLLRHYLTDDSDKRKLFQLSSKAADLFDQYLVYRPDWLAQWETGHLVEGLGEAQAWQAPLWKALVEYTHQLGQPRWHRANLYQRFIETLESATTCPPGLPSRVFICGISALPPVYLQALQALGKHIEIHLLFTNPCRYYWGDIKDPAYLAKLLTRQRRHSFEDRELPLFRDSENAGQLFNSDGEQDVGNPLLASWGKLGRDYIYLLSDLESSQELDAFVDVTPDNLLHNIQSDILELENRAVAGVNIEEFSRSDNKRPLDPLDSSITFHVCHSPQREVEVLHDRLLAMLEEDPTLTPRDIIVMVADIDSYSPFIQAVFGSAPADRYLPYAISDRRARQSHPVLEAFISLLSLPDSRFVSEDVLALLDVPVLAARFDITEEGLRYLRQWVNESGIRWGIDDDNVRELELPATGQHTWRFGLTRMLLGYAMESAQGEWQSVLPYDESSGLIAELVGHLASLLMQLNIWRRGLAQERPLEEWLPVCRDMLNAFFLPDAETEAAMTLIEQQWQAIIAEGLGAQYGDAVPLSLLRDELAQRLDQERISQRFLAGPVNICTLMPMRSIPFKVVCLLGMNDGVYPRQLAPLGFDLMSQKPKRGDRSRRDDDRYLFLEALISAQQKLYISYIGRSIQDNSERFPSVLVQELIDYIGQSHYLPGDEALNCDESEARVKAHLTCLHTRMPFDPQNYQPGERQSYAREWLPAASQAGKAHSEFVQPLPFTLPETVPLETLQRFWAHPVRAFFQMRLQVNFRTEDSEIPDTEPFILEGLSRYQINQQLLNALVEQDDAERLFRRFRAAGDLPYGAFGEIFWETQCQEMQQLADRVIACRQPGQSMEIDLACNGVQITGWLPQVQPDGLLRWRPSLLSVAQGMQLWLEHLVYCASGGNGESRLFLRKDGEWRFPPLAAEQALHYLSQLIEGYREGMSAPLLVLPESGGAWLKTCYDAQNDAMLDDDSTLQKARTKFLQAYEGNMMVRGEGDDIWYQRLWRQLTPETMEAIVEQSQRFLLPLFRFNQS
T1 sequence (P08394 whole entry): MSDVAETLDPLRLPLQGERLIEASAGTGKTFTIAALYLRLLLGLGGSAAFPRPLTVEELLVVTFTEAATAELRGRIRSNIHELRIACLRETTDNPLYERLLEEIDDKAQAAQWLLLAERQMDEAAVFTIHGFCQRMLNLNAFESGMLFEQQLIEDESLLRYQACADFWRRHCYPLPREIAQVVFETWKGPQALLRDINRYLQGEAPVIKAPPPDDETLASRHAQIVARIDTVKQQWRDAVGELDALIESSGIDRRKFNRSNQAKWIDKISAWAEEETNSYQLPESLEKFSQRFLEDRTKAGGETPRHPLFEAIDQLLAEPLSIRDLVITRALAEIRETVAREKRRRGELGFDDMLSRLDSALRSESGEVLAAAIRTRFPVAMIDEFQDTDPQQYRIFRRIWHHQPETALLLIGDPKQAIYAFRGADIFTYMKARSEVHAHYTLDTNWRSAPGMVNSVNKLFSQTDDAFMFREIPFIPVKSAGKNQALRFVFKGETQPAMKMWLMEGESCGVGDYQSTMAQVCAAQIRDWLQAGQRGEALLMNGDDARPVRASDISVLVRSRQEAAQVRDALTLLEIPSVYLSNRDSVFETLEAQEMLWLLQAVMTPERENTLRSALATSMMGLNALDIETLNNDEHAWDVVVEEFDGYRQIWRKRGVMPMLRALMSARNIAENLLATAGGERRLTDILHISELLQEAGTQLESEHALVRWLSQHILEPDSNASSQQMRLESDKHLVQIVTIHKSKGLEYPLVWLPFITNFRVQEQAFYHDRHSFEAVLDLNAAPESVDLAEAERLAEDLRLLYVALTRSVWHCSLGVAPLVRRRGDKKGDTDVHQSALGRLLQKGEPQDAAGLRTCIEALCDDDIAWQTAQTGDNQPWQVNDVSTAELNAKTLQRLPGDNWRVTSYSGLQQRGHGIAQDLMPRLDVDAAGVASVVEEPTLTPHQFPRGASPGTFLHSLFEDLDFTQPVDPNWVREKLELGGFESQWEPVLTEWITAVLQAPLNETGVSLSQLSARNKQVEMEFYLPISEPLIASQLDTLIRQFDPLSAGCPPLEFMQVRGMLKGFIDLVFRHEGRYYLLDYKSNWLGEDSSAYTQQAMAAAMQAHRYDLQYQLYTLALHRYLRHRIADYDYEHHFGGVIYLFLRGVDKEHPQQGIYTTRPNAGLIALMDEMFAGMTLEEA

[3] = Counterscreen for AddAB inhibitors: absorbance-based bacterial cell-based high throughput dose response assay for inhibitors of bacterial viability. [Related pubchem assays (depositor defined):AID435030, AID449728, AID449731, AID488942, AID488955, AID488956]; assay type: functional
[4] = Shn3 3'UTR reporter inhibitors, dose response, cell-based, Clone20 osteoblasts, firefly luciferase, cherry-picked (AID 624132); assay type: functional;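 note: firefly luciferase luminescence from reporter carrying the Shn3 3'UTR in osteoblasts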
[5] = HepG2 cell cytotoxicity, dose response, cytotoxicity control for Shn3 inhibitor project, CellTiter-Glo, cherry-picked (AID 624134); assay type: functional, cell-based
Cytochrome P450 2C19 = Cytochrome P450 2C19 (Homo sapiens, UniProt P33261); experiment: Cytochrome panel assay with activity outcomes. Panel member name: p450-cyp2c19 Compounds with AC50 equal or less than 10 uM are considered active; assay type: functional
Cytochrome P450 3A4 = Cytochrome P450 3A4 (Homo sapiens, UniProt P08684);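 note: CYP3A4 tested as one member of a cytochrome P450 panel screen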
Cytochrome P450 2D6 = Cytochrome P450 2D6 (Homo sapiens, UniProt P10635);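 note: CYP2D6 member of a cytochrome P450 panel assay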
[6] = molecular target: Voltage-dependent T-type calcium channel subunit alpha-1H (Homo sapiens, UniProt O95180); assay type: functional;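 note: channel activity triggered by adding a high calcium stimulation buffer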
Cytochrome P450 1A2 = molecular target: T2, Cytochrome P450 1A2 (Homo sapiens, UniProt P05177);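 note: PubChem cytochrome P450 panel assay, CYP1A2 panel member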
T2 sequence (P05177 whole entry): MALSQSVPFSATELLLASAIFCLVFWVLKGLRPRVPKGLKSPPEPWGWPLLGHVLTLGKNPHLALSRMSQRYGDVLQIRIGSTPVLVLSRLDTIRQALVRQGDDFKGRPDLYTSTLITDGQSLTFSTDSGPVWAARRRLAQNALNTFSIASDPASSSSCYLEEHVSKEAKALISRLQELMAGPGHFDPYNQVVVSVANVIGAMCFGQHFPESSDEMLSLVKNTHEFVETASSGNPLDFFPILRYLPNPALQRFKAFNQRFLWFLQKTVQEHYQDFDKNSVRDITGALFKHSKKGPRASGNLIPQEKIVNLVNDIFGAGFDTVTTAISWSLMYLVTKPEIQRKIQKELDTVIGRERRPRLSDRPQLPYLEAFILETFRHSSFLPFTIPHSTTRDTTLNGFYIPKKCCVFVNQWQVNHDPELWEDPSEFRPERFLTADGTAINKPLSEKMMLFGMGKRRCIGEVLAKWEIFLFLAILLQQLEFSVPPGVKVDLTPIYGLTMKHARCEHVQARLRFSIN

HeLa = experiment: HeLa cell cytotoxicity, dose response, cytotoxicity control for MITF activator project, CellTiter-Glo luminescence, cherry-pick samples (AID 540259); assay type: functional, cell-based; details: Homo sapiens

Sequence of Cytochrome P450 2D6 (P10635 whole entry): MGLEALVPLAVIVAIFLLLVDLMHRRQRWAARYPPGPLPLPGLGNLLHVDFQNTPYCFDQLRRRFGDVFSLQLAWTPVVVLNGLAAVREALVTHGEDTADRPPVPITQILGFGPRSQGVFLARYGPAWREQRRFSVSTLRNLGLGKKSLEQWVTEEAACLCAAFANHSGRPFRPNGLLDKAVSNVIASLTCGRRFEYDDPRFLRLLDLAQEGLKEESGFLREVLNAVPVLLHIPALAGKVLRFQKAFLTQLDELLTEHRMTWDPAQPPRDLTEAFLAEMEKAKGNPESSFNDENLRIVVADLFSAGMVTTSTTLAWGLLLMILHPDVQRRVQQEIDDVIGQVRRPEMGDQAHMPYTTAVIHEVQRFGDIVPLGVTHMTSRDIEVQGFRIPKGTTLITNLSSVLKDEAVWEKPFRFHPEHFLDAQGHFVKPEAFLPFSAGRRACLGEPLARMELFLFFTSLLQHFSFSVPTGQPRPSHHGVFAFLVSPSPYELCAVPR
Sequence of Cytochrome P450 3A4 (P08684 whole entry): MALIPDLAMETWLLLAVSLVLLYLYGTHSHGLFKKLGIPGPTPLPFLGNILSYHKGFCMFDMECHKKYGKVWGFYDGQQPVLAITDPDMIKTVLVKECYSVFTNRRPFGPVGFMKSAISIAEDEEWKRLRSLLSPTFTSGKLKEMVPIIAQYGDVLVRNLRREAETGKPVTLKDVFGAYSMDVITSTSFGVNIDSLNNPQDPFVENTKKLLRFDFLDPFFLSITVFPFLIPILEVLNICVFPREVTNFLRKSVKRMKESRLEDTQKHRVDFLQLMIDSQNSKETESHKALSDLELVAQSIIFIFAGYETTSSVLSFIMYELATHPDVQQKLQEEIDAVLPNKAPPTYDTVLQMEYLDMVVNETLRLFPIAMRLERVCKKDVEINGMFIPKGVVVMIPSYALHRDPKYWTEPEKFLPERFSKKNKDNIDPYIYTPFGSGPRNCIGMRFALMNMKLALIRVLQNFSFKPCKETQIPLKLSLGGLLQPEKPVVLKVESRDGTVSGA
Sequence of Cytochrome P450 2C19 (P33261 whole entry): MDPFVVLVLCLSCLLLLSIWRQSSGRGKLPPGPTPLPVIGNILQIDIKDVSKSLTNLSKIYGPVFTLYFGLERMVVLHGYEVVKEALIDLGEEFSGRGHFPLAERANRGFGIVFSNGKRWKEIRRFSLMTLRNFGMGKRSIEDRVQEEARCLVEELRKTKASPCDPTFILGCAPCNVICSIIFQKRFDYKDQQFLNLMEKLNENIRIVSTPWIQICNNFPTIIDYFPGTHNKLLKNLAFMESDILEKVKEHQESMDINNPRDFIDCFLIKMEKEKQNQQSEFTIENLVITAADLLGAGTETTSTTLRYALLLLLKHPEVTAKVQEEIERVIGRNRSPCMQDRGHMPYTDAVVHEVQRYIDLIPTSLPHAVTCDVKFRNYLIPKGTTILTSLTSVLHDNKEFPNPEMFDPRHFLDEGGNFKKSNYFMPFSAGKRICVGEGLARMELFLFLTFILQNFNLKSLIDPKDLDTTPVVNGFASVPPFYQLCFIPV
Sequence of Voltage-dependent T-type calcium channel subunit alpha-1H (O95180 whole entry): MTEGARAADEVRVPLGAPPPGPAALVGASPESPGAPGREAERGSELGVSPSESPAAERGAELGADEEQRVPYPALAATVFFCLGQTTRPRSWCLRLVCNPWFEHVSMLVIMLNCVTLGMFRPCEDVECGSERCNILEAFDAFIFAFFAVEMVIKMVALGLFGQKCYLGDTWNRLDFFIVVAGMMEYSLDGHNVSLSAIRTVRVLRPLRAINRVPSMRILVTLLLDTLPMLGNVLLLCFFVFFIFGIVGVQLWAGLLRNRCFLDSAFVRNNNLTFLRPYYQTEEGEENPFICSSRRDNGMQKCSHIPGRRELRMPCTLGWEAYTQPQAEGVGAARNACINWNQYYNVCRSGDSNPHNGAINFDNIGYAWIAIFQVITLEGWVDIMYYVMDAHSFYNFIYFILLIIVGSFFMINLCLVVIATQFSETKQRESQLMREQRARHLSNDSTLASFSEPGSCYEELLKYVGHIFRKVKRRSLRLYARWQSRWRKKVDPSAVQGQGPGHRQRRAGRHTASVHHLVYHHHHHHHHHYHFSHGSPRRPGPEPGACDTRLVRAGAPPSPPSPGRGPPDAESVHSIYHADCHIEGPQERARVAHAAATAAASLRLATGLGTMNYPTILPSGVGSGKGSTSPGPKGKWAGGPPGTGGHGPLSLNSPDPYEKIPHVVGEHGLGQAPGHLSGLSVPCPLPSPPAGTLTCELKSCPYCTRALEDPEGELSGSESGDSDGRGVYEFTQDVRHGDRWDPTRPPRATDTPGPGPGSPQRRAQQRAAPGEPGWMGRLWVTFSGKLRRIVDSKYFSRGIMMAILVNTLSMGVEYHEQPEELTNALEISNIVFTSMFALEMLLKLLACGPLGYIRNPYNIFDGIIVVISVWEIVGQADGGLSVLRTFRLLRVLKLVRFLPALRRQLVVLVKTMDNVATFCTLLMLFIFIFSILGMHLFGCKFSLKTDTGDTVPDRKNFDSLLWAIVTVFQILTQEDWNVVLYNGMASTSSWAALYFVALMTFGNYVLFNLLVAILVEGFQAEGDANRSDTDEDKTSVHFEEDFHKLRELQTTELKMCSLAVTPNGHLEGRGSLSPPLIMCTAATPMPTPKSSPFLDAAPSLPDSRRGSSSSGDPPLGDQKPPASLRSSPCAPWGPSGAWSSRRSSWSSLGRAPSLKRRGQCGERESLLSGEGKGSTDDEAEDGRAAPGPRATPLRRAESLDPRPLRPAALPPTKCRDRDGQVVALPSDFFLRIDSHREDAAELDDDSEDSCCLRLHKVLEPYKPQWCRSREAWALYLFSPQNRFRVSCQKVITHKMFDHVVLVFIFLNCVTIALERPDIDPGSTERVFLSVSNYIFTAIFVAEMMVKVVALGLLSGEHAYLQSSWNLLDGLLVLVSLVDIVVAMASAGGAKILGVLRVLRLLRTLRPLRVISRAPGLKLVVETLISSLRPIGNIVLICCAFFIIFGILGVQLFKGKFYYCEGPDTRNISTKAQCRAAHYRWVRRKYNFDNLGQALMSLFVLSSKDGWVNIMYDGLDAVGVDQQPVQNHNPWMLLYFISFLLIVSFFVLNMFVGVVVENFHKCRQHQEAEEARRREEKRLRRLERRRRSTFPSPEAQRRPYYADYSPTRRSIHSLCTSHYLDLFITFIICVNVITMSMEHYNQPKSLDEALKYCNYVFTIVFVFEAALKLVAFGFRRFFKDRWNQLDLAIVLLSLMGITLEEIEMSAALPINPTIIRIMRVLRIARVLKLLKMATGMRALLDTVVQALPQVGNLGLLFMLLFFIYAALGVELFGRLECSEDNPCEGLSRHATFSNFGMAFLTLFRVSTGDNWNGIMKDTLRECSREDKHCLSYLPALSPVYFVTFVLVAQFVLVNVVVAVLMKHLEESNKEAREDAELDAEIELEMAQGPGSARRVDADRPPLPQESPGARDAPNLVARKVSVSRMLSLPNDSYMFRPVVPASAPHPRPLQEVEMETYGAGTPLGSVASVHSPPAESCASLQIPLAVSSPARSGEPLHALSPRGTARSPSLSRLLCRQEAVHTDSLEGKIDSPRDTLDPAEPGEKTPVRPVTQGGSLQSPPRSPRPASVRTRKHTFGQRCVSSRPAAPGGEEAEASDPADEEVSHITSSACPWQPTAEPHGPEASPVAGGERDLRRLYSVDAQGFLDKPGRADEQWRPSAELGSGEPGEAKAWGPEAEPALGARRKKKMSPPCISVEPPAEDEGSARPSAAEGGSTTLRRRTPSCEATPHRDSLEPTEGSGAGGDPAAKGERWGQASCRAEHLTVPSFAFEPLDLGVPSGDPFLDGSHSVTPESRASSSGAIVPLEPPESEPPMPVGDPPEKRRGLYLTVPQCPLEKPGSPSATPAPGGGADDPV

Question: For `Cc1ccc(CNC(=O)c2ccc3c(O)c(O)c(-c4ccc(C)cc4)nc3c2)cc1`, which EC50 [1] is on record?
Answer: The EC50 was 1.14 µM (active).

Question: And the EC50 [2]?
Answer: The EC50 was 7.02 µM (active).

Question: And the IC50 (Exodeoxyribonuclease V)?
Answer: Its IC50 is > 119 µM (inactive).

Question: And the IC50 [3]?
Answer: Its IC50 is > 119 µM (inactive).

Question: And the AC50 [4]?
Answer: The AC50 was 2.82 µM (active).

Question: What about the AC50 [5] of the same compound?
Answer: The AC50 was 3.49 µM (active).

Question: With `CC(C)NC(=O)N1CCCC2(CCN(C(=O)c3cccc(F)c3)CC2)C1` as the compound, how does the AC50 (Cytochrome P450 2C19) read?
Answer: Its AC50 is “inconclusive”.

Question: What about the AC50 (Cytochrome P450 3A4) of the same compound?
Answer: The AC50 was 25.1 µM (inconclusive).

Question: What about the AC50 (Cytochrome P450 2D6) of the same compound?
Answer: Its AC50 is “inconclusive”.

Question: With `Cc1ccc(-c2nnn(CC(=O)N(c3ccccc3)C(C(=O)NCC3CCCO3)c3ccc(Cl)cc3)n2)cc1` (stereo unspecified) as the compound, how does the EC50 [6] read?
Answer: Its EC50 is 11.1 µM (active).

Question: What about the AC50 (Cytochrome P450 2C19; read-out: AC50) of the same compound?
Answer: Its AC50 is 1.12 µM (inconclusive).

Question: What about the AC50 (Cytochrome P450 3A4) of the same compound?
Answer: Its AC50 is 39.8 µM (inconclusive).

Question: And the AC50 (Cytochrome P450 2D6)?
Answer: Its AC50 is “inconclusive”.

Question: Which AC50 (Cytochrome P450 1A2) does the source give for `CCOC(=O)NCN1C(=O)C2C3C=CC(C3)C2C1=O` (stereo unspecified) here?
Answer: The AC50 was 14.1 µM (inconclusive).

Question: And the AC50 (Cytochrome P450 3A4)?
Answer: Its AC50 is 6.31 µM (inconclusive).

Question: What about the AC50 (Cytochrome P450 2D6) of the same compound?
Answer: Its AC50 is “inconclusive”.

Question: Which IC50 (Exodeoxyribonuclease V) does the source give for `CCCS(=O)(=O)N1CCC(C(=O)NCc2ccccc2Cl)CC1` here?
Answer: Its IC50 is > 119 µM (inactive).

Question: What about the IC50 [3] of the same compound?
Answer: The IC50 was > 119 µM (inactive).

Question: With `Cc1ccc(/C=N/c2sc3c(c2C#N)CCC3)s1` as the compound, how does the AC50 (HeLa) read?
Answer: Its AC50 is 82 µM (active).

Question: For `Cc1nc(-c2noc(-c3ccccc3Cl)n2)c(C(F)(F)F)o1`, which AC50 (HeLa) is on record?
Answer: Its AC50 is 291 µM (active).

Question: With `O=C1CN(/N=C\c2ccc(-c3ccc([N+](=O)[O-])cc3)o2)C(O)=N1` as the compound, how does the AC50 (Cytochrome P450 2D6) read?
Answer: Its AC50 is “inactive”.
